From PMC5580309, “Molecular-scale features that govern the effects of O-glycosylation on a carbohydrate-binding module” (Chemical Science, 2015)
Bridge positions count the residues as written; N and C are the ends. Peptide text beside a SMILES is read from it. * marks the point of attachment. αMan = OC[C@H]1O[C@H](*)[C@@H](O)[C@@H](O)[C@@H]1O

Target: T1, thermolysin (Bacillus thermoproteolyticus, UniProt P00800)
T1 sequence (P00800 233-548): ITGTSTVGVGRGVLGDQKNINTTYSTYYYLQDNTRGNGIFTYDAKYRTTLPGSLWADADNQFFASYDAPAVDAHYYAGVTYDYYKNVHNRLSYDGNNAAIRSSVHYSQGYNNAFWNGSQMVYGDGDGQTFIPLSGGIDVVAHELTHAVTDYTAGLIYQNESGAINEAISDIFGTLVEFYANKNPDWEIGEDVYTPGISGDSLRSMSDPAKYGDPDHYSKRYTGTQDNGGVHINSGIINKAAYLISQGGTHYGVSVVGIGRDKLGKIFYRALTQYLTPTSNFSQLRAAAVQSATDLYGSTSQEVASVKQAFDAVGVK
Assay: Proteolytic stability: half-life to thermolysin degradation
Type: in vitro ADME
Conditions: for half-life: thermolysin (isolated protease), thermolysin degradation, mean of three trials ± SD, procedures as described previously (ESI ref 18)
Method: All error bars reported are standard deviations of data achieved from three separate trials.
cellulose that were determined in accordance with our procedures as described previously 18.
The results are presented as mean of three trials ± SD. *Denotes an averaged value of four trials

Compound	half-life	Change in Half-Life to Thermolysin Degradation (glyco-variant minus its corresponding unglycosylated CBM (e.g. 2-1), *** not used in the correlation plot)
CC[C@H](C)[C@@H]1NC(=O)CNC(=O)CNC(=O)[C@@H](NC(=O)[C@H](CCC(N)=O)NC(=O)CNC(=O)[C@H](Cc2ccc(O)cc2)NC(=O)[C@H](Cc2c[nH]cn2)NC(=O)[C@@H](NC(=O)[C@H](CCC(N)=O)NC(=O)[C@@H](N)[C@@H](C)O)[C@@H](C)O)CSSC[C@@H]2NC(=O)[C@H]([C@@H](C)O)NC(=O)[C@H]([C@@H](C)O)NC(=O)CNC(=O)[C@H](CO)NC(=O)[C@H](C)NC(=O)[C@H](CSSC[C@@H](C(=O)N[C@@H](CC(C)C)C(=O)O)NC(=O)[C@H](CCC(N)=O)NC(=O)[C@H](CO)NC(=O)[C@H](Cc3ccc(O)cc3)NC(=O)[C@H](Cc3ccc(O)cc3)NC(=O)[C@@H]3CCCN3C(=O)[C@H](CC(N)=O)NC(=O)[C@H](CC(C)C)NC(=O)[C@H](C(C)C)NC(=O)[C@H](CCC(N)=O)NC2=O)NC(=O)[C@H](C(C)C)NC(=O)[C@H]([C@@H](C)O)NC(=O)[C@@H]2CCCN2C(=O)CNC(=O)[C@H](CO)NC(=O)[C@H](Cc2ccc(O)cc2)NC(=O)CNC1=O [CBM variant 12] (H-TQTHYGQCGGIGYSGPTVCASGTTCQVLNPYYSQCL-OH; disulfide 8-25, 19-35)	21.6 ± 1.2 min	
CC[C@H](C)[C@@H]1NC(=O)CNC(=O)CNC(=O)[C@@H](NC(=O)[C@H](CCC(N)=O)NC(=O)CNC(=O)[C@H](Cc2ccc(O)cc2)NC(=O)[C@H](Cc2c[nH]cn2)NC(=O)[C@@H](NC(=O)[C@H](CCC(N)=O)NC(=O)[C@@H](N)[C@@H](C)O)[C@@H](C)O[C@H]2O[C@H](CO)[C@@H](O)[C@H](O)[C@@H]2O)CSSC[C@@H]2NC(=O)[C@H]([C@@H](C)O)NC(=O)[C@H]([C@@H](C)O)NC(=O)CNC(=O)[C@H](CO)NC(=O)[C@H](C)NC(=O)[C@H](CSSC[C@@H](C(=O)N[C@@H](CC(C)C)C(=O)O)NC(=O)[C@H](CCC(N)=O)NC(=O)[C@H](CO)NC(=O)[C@H](Cc3ccc(O)cc3)NC(=O)[C@H](Cc3ccc(O)cc3)NC(=O)[C@@H]3CCCN3C(=O)[C@H](CC(N)=O)NC(=O)[C@H](CC(C)C)NC(=O)[C@H](C(C)C)NC(=O)[C@H](CCC(N)=O)NC2=O)NC(=O)[C@H](C(C)C)NC(=O)[C@H]([C@@H](C)O)NC(=O)[C@@H]2CCCN2C(=O)CNC(=O)[C@H](CO)NC(=O)[C@H](Cc2ccc(O)cc2)NC(=O)CNC1=O [CBM variant 13] (H-TQT(αMan)HYGQCGGIGYSGPTVCASGTTCQVLNPYYSQCL-OH; disulfide 8-25, 19-35)	68.4 ± 10.8 min	46.8 min
CC[C@H](C)[C@@H]1NC(=O)CNC(=O)CNC(=O)[C@@H](NC(=O)[C@H](CCC(N)=O)NC(=O)CNC(=O)[C@H](Cc2ccc(O)cc2)NC(=O)[C@H](Cc2c[nH]cn2)NC(=O)[C@H](CS)NC(=O)[C@H](CCC(N)=O)NC(=O)[C@@H](N)[C@@H](C)O)CSSC[C@@H]2NC(=O)[C@H]([C@@H](C)O)NC(=O)[C@H]([C@@H](C)O)NC(=O)CNC(=O)[C@H](CO)NC(=O)[C@H](C)NC(=O)[C@H](CSSC[C@@H](C(=O)N[C@@H](CC(C)C)C(=O)O)NC(=O)[C@H](CCC(N)=O)NC(=O)[C@H](CO)NC(=O)[C@H](Cc3ccc(O)cc3)NC(=O)[C@H](Cc3ccc(O)cc3)NC(=O)[C@@H]3CCCN3C(=O)[C@H](CC(N)=O)NC(=O)[C@H](CC(C)C)NC(=O)[C@H](C(C)C)NC(=O)[C@H](CCC(N)=O)NC2=O)NC(=O)[C@H](C(C)C)NC(=O)[C@H]([C@@H](C)O)NC(=O)[C@@H]2CCCN2C(=O)CNC(=O)[C@H](CO)NC(=O)[C@H](Cc2ccc(O)cc2)NC(=O)CNC1=O [CBM variant 14] (H-TQCHYGQCGGIGYSGPTVCASGTTCQVLNPYYSQCL-OH; disulfide 8-25, 19-35)	10.8 ± 2.4 min	
